A word on the DC50: it is the midpoint of the concentration-degradation curve. In general, Emax refers to the greatest response seen or fitted, relative to the assay's reference.

The source of these data is ChEMBL document CHEMBL4616689, “PROTAC Compounds Targeting Androgen Receptor for Cancer Therapeutics: Prostate Cancer and Kennedy's Disease” (ACS Med Chem Lett, 2020).

What all share (format): cell-based
Experiment [1] addresses T1, von Hippel-Lindau disease tumor suppressor/Androgen receptor (Homo sapiens, UniProt P10275+P40337). Briefly: Protac activity at E3 ubiquitin-protein ligase/AR in human VCAP cells assessed as induction of AR degradation after 24 hrs by ELISA.
Target sequence in this assay (P10275 whole entry): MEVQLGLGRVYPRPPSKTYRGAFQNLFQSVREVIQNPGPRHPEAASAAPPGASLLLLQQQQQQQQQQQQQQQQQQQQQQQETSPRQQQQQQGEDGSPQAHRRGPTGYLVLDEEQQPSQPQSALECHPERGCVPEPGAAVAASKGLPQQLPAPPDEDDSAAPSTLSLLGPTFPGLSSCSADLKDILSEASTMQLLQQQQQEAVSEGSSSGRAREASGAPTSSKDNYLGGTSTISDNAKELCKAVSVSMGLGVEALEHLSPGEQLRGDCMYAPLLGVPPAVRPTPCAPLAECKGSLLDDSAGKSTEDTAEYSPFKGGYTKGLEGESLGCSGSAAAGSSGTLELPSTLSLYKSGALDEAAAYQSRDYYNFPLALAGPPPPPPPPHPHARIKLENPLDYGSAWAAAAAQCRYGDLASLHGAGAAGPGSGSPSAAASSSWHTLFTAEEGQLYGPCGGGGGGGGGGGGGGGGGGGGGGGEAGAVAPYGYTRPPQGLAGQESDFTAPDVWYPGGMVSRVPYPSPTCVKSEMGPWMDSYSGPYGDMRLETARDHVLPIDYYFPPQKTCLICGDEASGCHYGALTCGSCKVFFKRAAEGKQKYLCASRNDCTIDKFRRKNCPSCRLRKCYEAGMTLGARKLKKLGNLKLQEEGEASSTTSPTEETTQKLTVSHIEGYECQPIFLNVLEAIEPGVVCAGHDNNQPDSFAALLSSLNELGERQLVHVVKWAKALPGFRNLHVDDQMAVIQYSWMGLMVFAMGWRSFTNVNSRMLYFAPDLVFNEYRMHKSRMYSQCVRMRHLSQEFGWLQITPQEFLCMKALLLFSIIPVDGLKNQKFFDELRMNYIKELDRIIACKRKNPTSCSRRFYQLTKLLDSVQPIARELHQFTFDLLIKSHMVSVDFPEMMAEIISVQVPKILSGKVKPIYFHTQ
Target sequence in this assay (P40337 whole entry): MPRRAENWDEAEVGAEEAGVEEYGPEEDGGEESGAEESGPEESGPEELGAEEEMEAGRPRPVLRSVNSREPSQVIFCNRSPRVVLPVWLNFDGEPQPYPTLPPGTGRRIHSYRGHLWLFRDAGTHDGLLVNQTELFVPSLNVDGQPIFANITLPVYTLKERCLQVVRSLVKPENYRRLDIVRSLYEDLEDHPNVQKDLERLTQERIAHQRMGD
Experiment [2] deals with T1, von Hippel-Lindau disease tumor suppressor/Androgen receptor. Briefly: Protac activity at E3-ubiquitin ligase/AR in human VCaP cells assessed as time taken for maximal degradation by ELISA. Background: ELISA stands for enzyme-linked immunosorbent assay.
Target sequence in this assay (P10275 whole entry, looked up): as the sequence (P10275 whole entry) above
Target sequence in this assay (P40337 whole entry, looked up): as the sequence (P40337 whole entry) above
Experiment [3] shares this target. Briefly: Protac activity at E3-ubiquitin ligase/AR in human LNCAP cells assessed as AR degradation up to 15 mins by ELISA relative to control. Set-up: concentration or dose not given beside the values.
Target sequence in this assay (P10275 whole entry, looked up): as the sequence (P10275 whole entry) above
Target sequence in this assay (P40337 whole entry, looked up): as the sequence (P40337 whole entry) above
Experiment [4] has the same target. The experiment is described as follows: Protac activity at E3 ubiquitin-protein ligase/AR in human LNCAP cells assessed as induction of AR degradation after 24 hrs by ELISA relative to control.
Target sequence in this assay (P10275 whole entry, looked up): as the sequence (P10275 whole entry) above
Target sequence in this assay (P40337 whole entry, looked up): as the sequence (P40337 whole entry) above
The target is the same in experiment [5]. Briefly: Protac activity at E3-ubiquitin ligase/AR in human VCaP cells assessed as AR degradation up to 15 mins by ELISA relative to control. Set-up: concentration or dose not given beside the values.
Target sequence in this assay (P10275 whole entry, looked up): as the sequence (P10275 whole entry) above
Target sequence in this assay (P40337 whole entry, looked up): as the sequence (P40337 whole entry) above
For experiment [6] the target is unchanged. Briefly: Protac activity at E3 ubiquitin-protein ligase/AR in human LNCAP cells assessed as induction of AR degradation after 24 hrs by ELISA.
Target sequence in this assay (P10275 whole entry): as the sequence (P10275 whole entry) above
Target sequence in this assay (P40337 whole entry): as the sequence (P40337 whole entry) above
For experiment [7] the target is unchanged. Briefly: Protac activity at E3 ubiquitin-protein ligase/AR in human VCAP cells assessed as induction of AR degradation after 24 hrs by ELISA relative to control.
Target sequence in this assay (P10275 whole entry, looked up): as the sequence (P10275 whole entry) above
Target sequence in this assay (P40337 whole entry, looked up): as the sequence (P40337 whole entry) above
Experiment [8] shares this target. Briefly: Protac activity at E3-ubiquitin ligase/AR in human LNCAP cells assessed as time taken for maximum degradation by ELISA.
Target sequence in this assay (P10275 whole entry, looked up): as the sequence (P10275 whole entry) above
Target sequence in this assay (P40337 whole entry, looked up): as the sequence (P40337 whole entry) above

As to `Cc1ncsc1-c1ccc(CNC(=O)[C@@H]2C[C@@H](O)CN2C(=O)[C@@H](NC(=O)COCCCOCCCCCOc2ccc(N3C(=S)N(c4ccc(C#N)c(C(F)(F)F)c4)C(=O)C3(C)C)cc2)C(C)(C)C)cc1`, the DC50 in experiment [1] and in experiment [6] was at most 50 µM throughout. For the same compound, the TIME in experiment [2] and in experiment [8] was 4 h in each case. In addition, the Activity in experiment [3] and in experiment [5] was 50% each time. Further, the values for the maximum response (Emax) in experiment [4] and in experiment [7] were over 71% and under 70%, respectively.

`Cc1ncsc1-c1ccc([C@H](C)NC(=O)[C@@H]2C[C@@H](O)CN2C(=O)[C@@H](NC(=O)COCCCOCCCCCOc2ccc(N3C(=S)N(c4ccc(C#N)c(C(F)(F)F)c4)C(=O)C3(C)C)cc2F)C(C)(C)C)cc1`: the DC50 in experiment [1] and in experiment [6] was at most 50 µM throughout. In addition, the TIME in experiment [2] and in experiment [8] was 4 h throughout. Besides, the Activity in experiment [3] and in experiment [5] was 50% throughout. Moreover, the maximal effect (Emax) in experiment [4] is over 71%; in experiment [7] it was under 70%.

`Cc1ncsc1-c1ccc(CNC(=O)[C@@H]2C[C@@H](O)CN2C(=O)[C@@H](NC(=O)COCCCOCCCCCOc2ccc(N3C(=S)N(c4cnc(C#N)c(C(F)(F)F)c4)C(=O)C3(C)C)cc2)C(C)(C)C)cc1`: the DC50 in experiment [1] and in experiment [6] was at most 50 µM in each case. The TIME in experiment [2] and in experiment [8] was 4 h in each case. In addition, the Activity in experiment [3] and in experiment [5] was 50% throughout. Besides, the Emax in experiment [4] is over 71%; in experiment [7], under 70%.

For `Cc1ncsc1-c1ccc(CNC(=O)[C@@H]2C[C@@H](O)CN2C(=O)[C@@H](NC(=O)COCCCOCCCCOc2ccc(N3C(=S)N(c4ccc(C#N)c(C(F)(F)F)c4)C(=O)C3(C)C)cc2F)C(C)(C)C)cc1`, the DC50 in experiment [1] and in experiment [6] was at most 50 µM each time. The TIME in experiment [2] and in experiment [8] was 4 h throughout. In addition, the Activity in experiment [3] and in experiment [5] was 50% each time. Moreover, the Emax in experiment [4] and in experiment [7] was over 71% in each case.

Regarding `Cc1ncsc1-c1ccc([C@H](C)NC(=O)[C@@H]2C[C@@H](O)CN2C(=O)[C@@H](NC(=O)COCCCOCCCCCOc2c(F)cc(N3C(=S)N(c4ccc(C#N)c(C(F)(F)F)c4)C(=O)C3(C)C)cc2F)C(C)(C)C)cc1`, the DC50 in experiment [1] and in experiment [6] was at most 50 µM in each case. Besides, the TIME in experiment [2] and in experiment [8] was 4 h in each case. Also, the Activity in experiment [3] and in experiment [5] was 50% throughout. For the same compound, the Emax is over 71% in experiment [4] and under 70% in experiment [7].

With `Cc1ncsc1-c1ccc(CNC(=O)[C@@H]2C[C@@H](O)CN2C(=O)[C@@H](NC(=O)COCCCOCCCCOc2ccc(N3C(=S)N(c4cnc(C#N)c(C(F)(F)F)c4)C(=O)C3(C)C)cc2)C(C)(C)C)cc1`, the DC50 in experiment [1] and in experiment [6] was at most 50 µM in each case. Besides, the TIME in experiment [2] and in experiment [8] was 4 h each time. Besides, the Activity in experiment [3] and in experiment [5] was 50% throughout. Further, the Emax in experiment [4] and in experiment [7] was over 71% in each case.

On to `Cc1ncsc1-c1ccc(CNC(=O)[C@@H]2C[C@@H](O)CN2C(=O)[C@@H](NC(=O)COCCCCOc2ccc(-c3ccc(N4C(=S)N(c5ccc(C#N)c(C(F)(F)F)c5)C(=O)C4(C)C)cc3)cc2)C(C)(C)C)cc1`, for which the DC50 in experiment [1] and in experiment [6] was at most 50 µM throughout. For the same compound, the TIME in experiment [2] and in experiment [8] was 4 h in each case. The Activity in experiment [3] and in experiment [5] was 50% each time. The Emax in experiment [4] and in experiment [7] was over 71% each time.

In the case of `Cc1ncsc1-c1ccc(CNC(=O)[C@@H]2C[C@@H](O)CN2C(=O)[C@@H](NC(=O)COCCCOCCCCOc2ccc(N3C(=S)N(c4ccc(C#N)c(Cl)c4)C(=O)C3(C)C)cc2)C(C)(C)C)cc1`, the DC50 in experiment [1] and in experiment [6] was at most 50 µM in each case. For the same compound, the TIME in experiment [2] and in experiment [8] was 4 h throughout. The Activity in experiment [3] and in experiment [5] was 50% throughout. The Emax in experiment [4] and in experiment [7] was over 71% in each case.
